Here are results for one compound from the NIST ThermoML archive (doi:10.1016/j.jct.2013.10.007).

The nature of data set [1]: Molar enthalpy of transition or fusion. The settings on record: Crystal; DSC.
For data set [2] the following is noted: Crystal; DTA.

± gives the expanded uncertainty stated by the source.

Take `CCCCCCCCCCCCCCCCCC(=O)OCC(COC(=O)CCCCCCCCCCCCCCCCC)OC(=O)CCCCCCCCCCCCCCCCC` [glycerol trioctadecanoate]: the “Molar enthalpy of transition or fusion” value in data set [1] stood at 27.7 ± 8.6 kcal/mol. Moreover, the Normal melting temperature in data set [2] was found to be 72.89 ± 0.53 °C.
